Experimental data as given in the CheMixHub ionic liquid set.

Test: xn = mol fraction of the nth substance listed
Conditions: 101 kPa

CCCCCCCCCCCCCCCC[n+]1ccccc1.O=C([O-])C(O)c1ccccc1 + CC(C)[C@H](N)C(=O)O + O
electrical conductivity [S/m]
Conditions | 293.15 K | 298.15 K | 303.15 K | 308.15 K | 313.15 K
x1 = 9.1e-07, x2 = 0.0009002 | 0.00089 | 0.00101 | 0.0011 | 0.0013 | 0.0014
x1 = 9.1e-07, x2 = 0.001799 | 0.00133 | 0.00151 | 0.0017 | 0.0019 | 0.0021
x1 = 1.08e-06, x2 = 0 | 0.00061 | 0.00068 | 0.00076 | 0.00083 | 0.0009
x1 = 1.98e-06, x2 = 0 | 0.001 | 0.0012 | 0.0013 | 0.0014 | 0.0016
x1 = 2e-06, x2 = 0.001799 | 0.00178 | 0.00203 | 0.0023 | 0.0025 | 0.0028
x1 = 2.17e-06, x2 = 0.0009002 | 0.0013 | 0.0015 | 0.0017 | 0.0019 | 0.0021
x1 = 2.88e-06, x2 = 0 | 0.00147 | 0.0016 | 0.0018 | 0.002 | 0.0022
x1 = 3.09e-06, x2 = 0.001799 | 0.00218 | 0.0025 | 0.0028 | 0.0031 | 0.0034
x1 = 3.26e-06, x2 = 0.0009002 | 0.00176 | 0.002 | 0.0022 | 0.0025 | 0.0028
x1 = 3.96e-06, x2 = 0 | 0.0019 | 0.0022 | 0.0024 | 0.0026 | 0.0029
x1 = 4e-06, x2 = 0.001799 | 0.00257 | 0.0029 | 0.0032 | 0.0036 | 0.004
x1 = 4.53e-06, x2 = 0.0009002 | 0.00226 | 0.00256 | 0.0029 | 0.0032 | 0.0035
x1 = 4.69e-06, x2 = 0 | 0.0023 | 0.0026 | 0.0029 | 0.0031 | 0.0035
x1 = 5.1e-06, x2 = 0.001799 | 0.00299 | 0.0034 | 0.0038 | 0.0042 | 0.0046
x1 = 5.95e-06, x2 = 0 | 0.00281 | 0.0032 | 0.0035 | 0.0038 | 0.0042
x1 = 5.98e-06, x2 = 0.0009002 | 0.00283 | 0.0032 | 0.0036 | 0.004 | 0.0044
x1 = 6.37e-06, x2 = 0.001799 | 0.00351 | 0.004 | 0.0044 | 0.0049 | 0.0055
x1 = 7.21e-06, x2 = 0 | 0.00341 | 0.0038 | 0.0042 | 0.0046 | 0.0051
x1 = 7.42e-06, x2 = 0.0009002 | 0.00334 | 0.00378 | 0.0042 | 0.0047 | 0.0051
x1 = 7.83e-06, x2 = 0.001799 | 0.00405 | 0.00458 | 0.0051 | 0.0057 | 0.0063
x1 = 8.83e-06, x2 = 0 | 0.00406 | 0.0046 | 0.005 | 0.0055 | 0.006
x1 = 8.87e-06, x2 = 0.0009002 | 0.00384 | 0.00435 | 0.0049 | 0.0054 | 0.006
x1 = 9.28e-06, x2 = 0.001799 | 0.00457 | 0.00517 | 0.0058 | 0.0064 | 0.0072
x1 = 1.032e-05, x2 = 0.0009002 | 0.00431 | 0.00487 | 0.0054 | 0.0061 | 0.0067
x1 = 1.045e-05, x2 = 0 | 0.00469 | 0.0053 | 0.0058 | 0.0065 | 0.0071
x1 = 1.074e-05, x2 = 0.001799 | 0.00499 | 0.00564 | 0.0063 | 0.0071 | 0.0079
x1 = 1.177e-05, x2 = 0.0009002 | 0.00466 | 0.00529 | 0.0059 | 0.0066 | 0.0074
x1 = 1.201e-05, x2 = 0.001799 | 0.00536 | 0.00607 | 0.0068 | 0.0076 | 0.0085
x1 = 1.207e-05, x2 = 0 | 0.00516 | 0.0058 | 0.0064 | 0.0071 | 0.0079
x1 = 1.322e-05, x2 = 0.0009002 | 0.00502 | 0.00569 | 0.0064 | 0.0071 | 0.0079
x1 = 1.347e-05, x2 = 0.001799 | 0.00572 | 0.00647 | 0.0073 | 0.0081 | 0.009
x1 = 1.351e-05, x2 = 0 | 0.00562 | 0.00631 | 0.007 | 0.0077 | 0.0085
x1 = 1.431e-05, x2 = 0.0009002 | 0.00533 | 0.00604 | 0.00678 | 0.0076 | 0.0084
x1 = 1.474e-05, x2 = 0.001799 | 0.00607 | 0.00687 | 0.0077 | 0.0086 | 0.0096
x1 = 1.478e-05, x2 = 0 | 0.00603 | 0.0068 | 0.0075 | 0.0083 | 0.0092
x1 = 1.557e-05, x2 = 0.0009002 | 0.00565 | 0.0064 | 0.00717 | 0.008 | 0.0089
x1 = 1.583e-05, x2 = 0.001799 | 0.00637 | 0.0072 | 0.0081 | 0.009 | 0.01
x1 = 1.622e-05, x2 = 0 | 0.00644 | 0.0072 | 0.008 | 0.0089 | 0.0098
x1 = 1.666e-05, x2 = 0.0009002 | 0.006 | 0.00675 | 0.0076 | 0.0084 | 0.0094
x1 = 1.766e-05, x2 = 0 | 0.00687 | 0.0077 | 0.0085 | 0.0094 | 0.0104
